Columns and labels:
Rattus norvegicus [1] = species on record: Rattus norvegicus; assay: Antiovulatory potency at 10 ug/rat expressed as rats ovulating by total no. of rats (5/5); assay type: functional
[2] = target: T1, Gonadotropin-releasing hormone receptor (Rattus norvegicus, UniProt P30969); assay: Affinity for rat gonadotrophin releasing hormone (GnRH) receptor using HEK293 cells transfected with rat Gonadotropin-releasing hormone receptor; assay type: cell-based; details: hek293
T1 sequence (P30969 whole entry): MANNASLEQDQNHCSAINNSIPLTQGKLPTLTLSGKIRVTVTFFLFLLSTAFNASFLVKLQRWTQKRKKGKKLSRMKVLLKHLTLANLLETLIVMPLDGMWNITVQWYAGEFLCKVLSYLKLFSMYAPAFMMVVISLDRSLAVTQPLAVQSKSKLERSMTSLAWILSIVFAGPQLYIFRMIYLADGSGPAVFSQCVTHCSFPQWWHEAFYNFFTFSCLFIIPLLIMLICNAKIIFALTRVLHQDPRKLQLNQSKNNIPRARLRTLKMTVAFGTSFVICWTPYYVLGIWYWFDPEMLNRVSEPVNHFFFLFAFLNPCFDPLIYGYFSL

Rattus norvegicus [3] = species on record: Rattus norvegicus; assay: Antiovulatory potency at 1000 ug/rat expressed as rats ovulating by total no. of rats (3/3); assay type: functional
[4] = target: T1, Gonadotropin-releasing hormone receptor; assay: Affinity for rat Gonadotropin-releasing hormone receptor membrane evaluated using HEK293 cells transfected with rat Gonadotropin-releasing hormone receptor; assay type: cell-based
Rattus norvegicus [5] = species on record: Rattus norvegicus; assay: Antiovulatory potency at 5 ug/rat expressed as rats ovulating by total no. of rats (3/4); assay type: functional
Rattus norvegicus [6] = species on record: Rattus norvegicus; assay: Antiovulatory potency at 10 ug/rat expressed as rats ovulating by total no. of rats (4/8); assay type: functional
Rattus norvegicus [7] = species on record: Rattus norvegicus; assay: Antiovulatory potency at 25 ug/rat expressed as rats ovulating by total no. of rats (1/5); assay type: functional
Rattus norvegicus [8] = species on record: Rattus norvegicus; assay: Antiovulatory potency at 5 ug/rat expressed as rats ovulating by total no. of rats (3/3); assay type: functional
Rattus norvegicus [9] = species on record: Rattus norvegicus; assay: Antiovulatory potency at 10 ug/rat expressed as rats ovulating by total no. of rats (2/7); assay type: functional
Rattus norvegicus [10] = species on record: Rattus norvegicus; assay: Antiovulatory potency at 100 ug/rat expressed as rats ovulating by total no. of rats (14/14); assay type: functional
Rattus norvegicus [11] = species on record: Rattus norvegicus; assay: Antiovulatory potency at 250 ug/rat expressed as rats ovulating by total no. of rats (0/4); assay type: functional
Rattus norvegicus [12] = species on record: Rattus norvegicus; assay: Antiovulatory potency at 25 ug/rat expressed as rats ovulating by total no. of rats (4/4); assay type: functional
Rattus norvegicus [13] = species on record: Rattus norvegicus; assay: Antiovulatory potency at 50 ug/rat expressed as rats ovulating by total no. of rats (4/8); assay type: functional
Rattus norvegicus [14] = species on record: Rattus norvegicus; assay: Antiovulatory potency at 100 ug/rat expressed as rats ovulating by total no. of rats (0/8); assay type: functional
Rattus norvegicus [15] = species on record: Rattus norvegicus; assay: Antiovulatory potency at 25 ug/rat expressed as rats ovulating by total no. of rats (0/3); assay type: functional
Rattus norvegicus [16] = species on record: Rattus norvegicus; assay: Antiovulatory potency at 10 ug/rat expressed as rats ovulating by total no. of rats (2/8); assay type: functional
Rattus norvegicus [17] = species on record: Rattus norvegicus; assay: Antiovulatory potency at 500 ug/rat expressed as rats ovulating by total no. of rats (4/10); assay type: functional
Rattus norvegicus [18] = species on record: Rattus norvegicus; assay: Antiovulatory potency at 1000 ug/rat expressed as rats ovulating by total no. of rats (5/5); assay type: functional
Rattus norvegicus [19] = species on record: Rattus norvegicus; assay: Antiovulatory potency at 25 ug/rat expressed as rats ovulating by total no. of rats (5/5); assay type: functional
Rattus norvegicus [20] = species on record: Rattus norvegicus; assay: Antiovulatory potency at 50 ug/rat expressed as rats ovulating by total no. of rats (1/8); assay type: functional
Rattus norvegicus [21] = species on record: Rattus norvegicus; assay: Antiovulatory potency at 100 ug/rat expressed as rats ovulating by total no. of rats (1/8); assay type: functional
Rattus norvegicus [22] = species on record: Rattus norvegicus; assay: Antiovulatory potency at 250 ug/rat expressed as rats ovulating by total no. of rats (0/5); assay type: functional
Rattus norvegicus [23] = species on record: Rattus norvegicus; assay: Antiovulatory potency at 100 ug/rat expressed as rats ovulating by total no. of rats (4/7); assay type: functional
Rattus norvegicus [24] = species on record: Rattus norvegicus; assay: Antiovulatory potency at 250 ug/rat expressed as rats ovulating by total no. of rats (4/4); assay type: functional
Rattus norvegicus [25] = species on record: Rattus norvegicus; assay: Antiovulatory potency at 250 ug/rat expressed as rats ovulating by total no. of rats (1/5); assay type: functional
Rattus norvegicus [26] = species on record: Rattus norvegicus; assay: Antiovulatory potency at 500 ug/rat expressed as rats ovulating by total no. of rats (5/9); assay type: functional
Rattus norvegicus [27] = species on record: Rattus norvegicus; assay: Antiovulatory potency at 250 ug/rat expressed as rats ovulating by total no. of rats (7/7); assay type: functional
Rattus norvegicus [28] = species on record: Rattus norvegicus; assay: Antiovulatory potency at 50 ug/rat expressed as rats ovulating by total no. of rats (0/5); assay type: functional
Rattus norvegicus [29] = species on record: Rattus norvegicus; assay: Antiovulatory potency at 500 ug/rat expressed as rats ovulating by total no. of rats (6/6); assay type: functional

With CC(=O)N[C@@H]1CCC(=O)N[C@@H](C)C(=O)NCC[C@H]2NC(=O)[C@@H](CC(=O)NC[C@H](C(N)=O)NC(=O)[C@H]3CCCN3C(=O)[C@H](CCCN=C(N)N)NC(=O)[C@@H](CC(C)C)NC(=O)[C@@H](Cc3ccc4ccccc4c3)NC2=O)NC(=O)[C@@H](Cc2c[nH]c3ccccc23)NC(=O)[C@H](Cc2ccc(Cl)cc2)NC1=O the Ovulating rats (Rattus norvegicus [1]) was 5 and the Ki [2] was 1.6 nM.

CC(=O)N[C@H](Cc1ccc2ccccc2c1)C(=O)N[C@@H]1CCC(=O)NCCCC[C@@H](C(=O)N2CCC[C@H]2C(=O)N[C@H](C)C(N)=O)NC(=O)[C@H](CC(C)C)NC(=O)[C@@H](Cc2ccc3ccccc3c2)NC(=O)[C@H](CCCN=C(N)N)NC(=O)[C@H](C)NC(=O)[C@@H](Cc2cccnc2)NC1=O showed an Ovulating rats (Rattus norvegicus [3]) of 3.

CC(=O)N[C@H]1CCC(=O)NCC(=O)NCC[C@H]2NC(=O)[C@H](CC(=O)NC[C@@H](C(N)=O)NC(=O)[C@@H]3CCCN3C(=O)[C@H](CCCNC(=N)N)NC(=O)[C@H](CC(C)C)NC(=O)[C@@H](Cc3ccc4ccccc4c3)NC2=O)NC(=O)[C@@H](Cc2c[nH]c3ccccc23)NC(=O)[C@@H](Cc2ccc(Cl)cc2)NC1=O was tested, and the Ki [4] was 2.9 nM.

CC(=O)N[C@@H]1CCC(=O)NCCC(=O)NC[C@H]2NC(=O)[C@@H](CC(=O)NC[C@H](C(N)=O)NC(=O)[C@H]3CCCN3C(=O)[C@H](CCCN=C(N)N)NC(=O)[C@@H](CC(C)C)NC(=O)[C@@H](Cc3ccc4ccccc4c3)NC2=O)NC(=O)[C@@H](Cc2c[nH]c3ccccc23)NC(=O)[C@H](Cc2ccc(Cl)cc2)NC1=O was tested, and the Ovulating rats (Rattus norvegicus [5]) was 3, the Ki [2] was 0.76 nM and the Ovulating rats (Rattus norvegicus [6]) was 4. The Ovulating rats (Rattus norvegicus [7]) was 1.

Work on CC(=O)N[C@@H]1CCC(=O)NCC(=O)NC[C@H]2NC(=O)[C@@H](CC(=O)NC[C@H](C(N)=O)NC(=O)[C@H]3CCCN3C(=O)[C@H](CCCN=C(N)N)NC(=O)[C@@H](CC(C)C)NC(=O)[C@@H](Cc3ccc4ccccc4c3)NC2=O)NC(=O)[C@@H](Cc2c[nH]c3ccccc23)NC(=O)[C@H](Cc2ccc(Cl)cc2)NC1=O yielded a Ki [2] of 0.44 nM, an Ovulating rats (Rattus norvegicus [8]) of 3 and an Ovulating rats (Rattus norvegicus [9]) of 2.

In the case of CC(=O)N[C@H](Cc1ccc2ccccc2c1)C(=O)N[C@H](Cc1ccc(Cl)cc1)C(=O)N[C@@H]1CC(=O)NCC[C@@H](C(=O)N2CCC[C@H]2C(=O)N[C@H](C)C(N)=O)NC(=O)[C@H](CC(C)C)NC(=O)[C@@H](Cc2ccc3ccccc3c2)NC(=O)[C@H](CCCN=C(N)N)NC(=O)[C@H](C)NC1=O, the Ovulating rats (Rattus norvegicus [10]) is reported as 14 and the Ovulating rats (Rattus norvegicus [11]) is reported as 0.

Work on CC(=O)N[C@H]1CC(=O)NCC(=O)NCC[C@H]2NC(=O)[C@H](CC(=O)NC[C@@H](C(N)=O)NC(=O)[C@@H]3CCCN3C(=O)[C@H](CCCN=C(N)N)NC(=O)[C@H](CC(C)C)NC(=O)[C@@H](Cc3ccc4ccccc4c3)NC2=O)NC(=O)[C@@H](Cc2c[nH]c3ccccc23)NC(=O)[C@@H](Cc2ccc(Cl)cc2)NC1=O yielded an Ovulating rats (Rattus norvegicus [12]) of 4, an Ovulating rats (Rattus norvegicus [13]) of 4 and an Ovulating rats (Rattus norvegicus [14]) of 0.

In the case of CC(=O)N[C@@H]1CC(=O)NCC(=O)NC[C@H]2NC(=O)[C@@H](CC(=O)NC[C@H](C(N)=O)NC(=O)[C@H]3CCCN3C(=O)[C@H](CCCN=C(N)N)NC(=O)[C@@H](CC(C)C)NC(=O)[C@@H](Cc3ccc4ccccc4c3)NC2=O)NC(=O)[C@@H](Cc2c[nH]c3ccccc23)NC(=O)[C@H](Cc2ccc(Cl)cc2)NC1=O, the Ki [2] is reported as 0.49 nM, the Ovulating rats (Rattus norvegicus [15]) is reported as 0 and the Ovulating rats (Rattus norvegicus [16]) is reported as 2.

CC(=O)N[C@H]1CSSC[C@H]2NC(=O)[C@@H](CC(=O)NC[C@H](C(N)=O)NC(=O)[C@H]3CCCN3C(=O)[C@H](CCCN=C(N)N)NC(=O)[C@@H](CC(C)C)NC(=O)[C@@H](Cc3ccc4ccccc4c3)NC2=O)NC(=O)[C@@H](Cc2c[nH]c3ccccc23)NC(=O)[C@H](Cc2ccc(Cl)cc2)NC1=O showed a Ki [2] of 0.25 nM and an Ovulating rats (Rattus norvegicus [17]) of 4.

Compound CC(=O)N[C@H](Cc1ccc2ccccc2c1)C(=O)N[C@H](Cc1ccc(Cl)cc1)C(=O)N[C@@H]1CCC(=O)NCCCC[C@@H](C(=O)N2CCC[C@H]2C(=O)N[C@H](C)C(N)=O)NC(=O)[C@H](CC(C)C)NC(=O)[C@@H](Cc2ccc3ccccc3c2)NC(=O)[C@H](CCCN=C(N)N)NC(=O)[C@H](C)NC1=O has an Ovulating rats (Rattus norvegicus [3]) of 3.

CC(C)C[C@@H]1NC(=O)[C@@H](Cc2ccc3ccccc3c2)NC(=O)[C@H](CCCN=C(N)N)NC(=O)[C@H](C)NC(=O)[C@@H](Cc2cccnc2)NC(=O)[C@@H](Cc2ccc(Cl)cc2)NC(=O)[C@@H](Cc2ccc3ccccc3c2)NC(=O)CCC(=O)NCCCC[C@@H](C(=O)N2CCC[C@H]2C(=O)N[C@H](C)C(N)=O)NC1=O gave an Ovulating rats (Rattus norvegicus [18]) of 5.

For CC(=O)N[C@@H]1CCC(=O)NCC(=O)NCC[C@@H]2NC(=O)[C@@H](CC(=O)NC[C@H](C(N)=O)NC(=O)[C@H]3CCCN3C(=O)[C@H](CCCN=C(N)N)NC(=O)[C@@H](CC(C)C)NC(=O)[C@@H](Cc3ccc4ccccc4c3)NC2=O)NC(=O)[C@@H](Cc2c[nH]c3ccccc23)NC(=O)[C@H](Cc2ccc(Cl)cc2)NC1=O, the Ovulating rats (Rattus norvegicus [19]) was 5, the Ovulating rats (Rattus norvegicus [14]) was 0 and the Ovulating rats (Rattus norvegicus [20]) was 1.

Work on CC(=O)N[C@@H]1CCC(=O)NCC[C@H]2NC(=O)[C@@H](CC(=O)NC[C@H](C(N)=O)NC(=O)[C@H]3CCCN3C(=O)[C@H](CCCN=C(N)N)NC(=O)[C@@H](CC(C)C)NC(=O)[C@@H](Cc3ccc4ccccc4c3)NC2=O)NC(=O)[C@@H](Cc2c[nH]c3ccccc23)NC(=O)[C@H](Cc2ccc(Cl)cc2)NC1=O yielded a Ki [2] of 1.7 nM, an Ovulating rats (Rattus norvegicus [21]) of 1 and an Ovulating rats (Rattus norvegicus [22]) of 0.

With CC(=O)N[C@H](Cc1ccc2ccccc2c1)C(=O)N[C@H](Cc1ccc(Cl)cc1)C(=O)N[C@@H]1CC(=O)NCCCC[C@@H]2NC(=O)[C@H](CC(C)C)NC(=O)[C@@H](Cc3ccc4ccccc4c3)NC(=O)[C@H](CCCN=C(N)N)NC(=O)[C@H](CC(=O)NC[C@@H](C(N)=O)NC(=O)[C@@H]3CCCN3C2=O)NC1=O the Ovulating rats (Rattus norvegicus [23]) was 4 and the Ovulating rats (Rattus norvegicus [24]) was 4.

Compound CC(=O)N[C@@H]1CC(=O)NC[C@@H]2NC(=O)[C@@H](CC(=O)NC[C@H](C(N)=O)NC(=O)[C@H]3CCCN3C(=O)[C@H](CCCN=C(N)N)NC(=O)[C@@H](CC(C)C)NC(=O)[C@@H](Cc3ccc4ccccc4c3)NC2=O)NC(=O)[C@@H](Cc2c[nH]c3ccccc23)NC(=O)[C@H](Cc2ccc(Cl)cc2)NC1=O has an Ovulating rats (Rattus norvegicus [25]) of 1, a Ki [2] of 4.8 nM and an Ovulating rats (Rattus norvegicus [26]) of 5.

CC(=O)N[C@H]1CCC(=O)NCCCC[C@@H]2NC(=O)[C@H](CC(C)C)NC(=O)[C@@H](Cc3ccc4ccccc4c3)NC(=O)[C@H](CCCN=C(N)N)NC(=O)[C@H](CC(=O)NC[C@H](C(N)=O)NC(=O)[C@@H]3CCCN3C2=O)NC(=O)[C@@H](Cc2cccnc2)NC(=O)[C@H](Cc2ccc(Cl)cc2)NC1=O gave an Ovulating rats (Rattus norvegicus [27]) of 7, a Ki [2] of 1.1 nM and an Ovulating rats (Rattus norvegicus [28]) of 0.

CC(=O)N[C@H]1CSSC[C@@H]2NC(=O)[C@@H](CC(=O)NC[C@H](C(N)=O)NC(=O)[C@H]3CCCN3C(=O)[C@H](CCCN=C(N)N)NC(=O)[C@@H](CC(C)C)NC(=O)[C@H](CCCN=C(N)N)NC2=O)NC(=O)[C@@H](Cc2c[nH]c3ccccc23)NC(=O)[C@H](Cc2ccc(Cl)cc2)NC1=O was tested, and the Ki [2] was 89 nM and the Ovulating rats (Rattus norvegicus [29]) was 6.
